Data taken from patent US8975398B2, “NAMPT inhibitors” (AbbVie Inc., priority 2012, dated 2015).

What follows are molecules tested on PC3 cells (assay: NAMPT Cell Proliferation Assay (Cell Titer Glo; also performed in the presence of 0.3 mM nicotinamide mononucleotide)). Settings: Homo sapiens, PC-3, 120 h, 5 days incubation, cell viability by Cell Titer Glo.
Format: cell-based
Procedure, shortened: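 Viability read by Cell Titer Glo after 5-day compound treatment of PC3 cells, dose range 10 μM down to 1×10^−5 μM in 10-fold steps; a second run adds 0.3 mM nicotinamide mononucleotide. Sigmoidal dose-response fitting of percent inhibition gives IC50.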

Row | IC50 | Compound
1 | 1.97 nM | Cc1ccsc1C(=O)N1CCC(Cc2ccc(NC(=O)C3CN(c4cccnn4)C3)cc2)CC1 [Example 940, N-[4-({1-[(3-methylthiophen-2-yl)carbonyl]piperidin-4-yl}methyl)phenyl]-1-(pyridazin-3-yl)azetidine-3-carboxamide]
2 | 2.1 nM | C#CCCC(=O)N1CCC(Cc2ccc(NC(=O)C3CN(c4cccnn4)C3)cc2)CC1 [Example 941, N-(4-{[1-(pent-4-ynoyl)piperidin-4-yl]methyl}phenyl)-1-(pyridazin-3-yl)azetidine-3-carboxamide]
3 | 2.76 nM | O=C(Nc1ccc(CC2CCN(C(=O)c3ccsc3)CC2)cc1)C1CN(c2cccnn2)C1 [Example 942, 1-(pyridazin-3-yl)-N-(4-{[1-(thiophen-3-ylcarbonyl)piperidin-4-yl]methyl}phenyl)azetidine-3-carboxamide]
4 | 7.6 nM | COCC(=O)N1CCC(Cc2ccc(NC(=O)C3CN(c4cccnn4)C3)cc2)CC1 [Example 943, N-(4-{[1-(methoxyacetyl)piperidin-4-yl]methyl}phenyl)-1-(pyridazin-3-yl)azetidine-3-carboxamide]
5 | 7.14 nM | O=C(Nc1ccc(CC2CCN(C(=O)C3CCCO3)CC2)cc1)C1CN(c2cccnn2)C1 (stereo not drawn) [Example 944, 1-(pyridazin-3-yl)-N-(4-{[1-(tetrahydrofuran-2-ylcarbonyl)piperidin-4-yl]methyl}phenyl)azetidine-3-carboxamide]
6 | 4.51 nM | COCCOCC(=O)N1CCC(Cc2ccc(NC(=O)C3CN(c4cccnn4)C3)cc2)CC1 [Example 945, N-[4-({1-[(2-methoxyethoxy)acetyl]piperidin-4-yl}methyl)phenyl]-1-(pyridazin-3-yl)azetidine-3-carboxamide]
7 | 2.89 nM | CCOCC(=O)N1CCC(Cc2ccc(NC(=O)C3CN(c4cccnn4)C3)cc2)CC1 [Example 946, N-(4-{[1-(ethoxyacetyl)piperidin-4-yl]methyl}phenyl)-1-(pyridazin-3-yl)azetidine-3-carboxamide]
8 | 2.56 nM | O=C(Nc1ccc(CC2CCN(C(=O)c3cccs3)CC2)cc1)C1CN(c2cccnn2)C1 [Example 947, 1-(pyridazin-3-yl)-N-(4-{[1-(thiophen-2-ylcarbonyl)piperidin-4-yl]methyl}phenyl)azetidine-3-carboxamide]
9 | 2.26 nM | CCCCCC(=O)N1CCC(Cc2ccc(NC(=O)C3CN(c4cccnn4)C3)cc2)CC1 [Example 948, N-{4-[(1-hexanoylpiperidin-4-yl)methyl]phenyl}-1-(pyridazin-3-yl)azetidine-3-carboxamide]
10 | 5.95 nM | Cn1cccc1C(=O)N1CCC(Cc2ccc(NC(=O)C3CN(c4cccnn4)C3)cc2)CC1 [Example 949, N-[4-({1-[(1-methyl-1H-pyrrol-2-yl)carbonyl]piperidin-4-yl}methyl)phenyl]-1-(pyridazin-3-yl)azetidine-3-carboxamide]
11 | 6.06 nM | C=CCC(=O)N1CCC(Cc2ccc(NC(=O)C3CN(c4cccnn4)C3)cc2)CC1 [Example 950, N-(4-{[1-(but-3-enoyl)piperidin-4-yl]methyl}phenyl)-1-(pyridazin-3-yl)azetidine-3-carboxamide]
12 | 2.77 nM | O=C(Nc1ccc(CC2CCN(C(=O)c3nccs3)CC2)cc1)C1CN(c2cccnn2)C1 [Example 951, 1-(pyridazin-3-yl)-N-(4-{[1-(1,3-thiazol-2-ylcarbonyl)piperidin-4-yl]methyl}phenyl)azetidine-3-carboxamide]
13 | 2.17 nM | O=C(Nc1ccc(CC2CCN(C(=O)c3ccco3)CC2)cc1)C1CN(c2cccnn2)C1 [Example 952, N-(4-{[1-(furan-2-ylcarbonyl)piperidin-4-yl]methyl}phenyl)-1-(pyridazin-3-yl)azetidine-3-carboxamide]
14 | 3.34 nM | O=C(Nc1ccc(CC2CCN(C(=O)c3ccno3)CC2)cc1)C1CN(c2cccnn2)C1 [Example 953, N-(4-{[1-(1,2-oxazol-5-ylcarbonyl)piperidin-4-yl]methyl}phenyl)-1-(pyridazin-3-yl)azetidine-3-carboxamide]
15 | 6.38 nM | O=C(Nc1ccc(CC2CCN(C(=O)c3ccccn3)CC2)cc1)C1CN(c2cccnn2)C1 [Example 954, 1-(pyridazin-3-yl)-N-(4-{[1-(pyridin-2-ylcarbonyl)piperidin-4-yl]methyl}phenyl)azetidine-3-carboxamide]
16 | 5.97 nM | O=C(Nc1ccc(CC2CCN(C(=O)c3ccoc3)CC2)cc1)C1CN(c2cccnn2)C1 [Example 955, N-(4-{[1-(furan-3-ylcarbonyl)piperidin-4-yl]methyl}phenyl)-1-(pyridazin-3-yl)azetidine-3-carboxamide]
17 | 6.4 nM | O=C(Nc1ccc(CC2CCN(C(=O)CC3CC3)CC2)cc1)C1CN(c2cccnn2)C1 [Example 956, N-(4-{[1-(cyclopropylacetyl)piperidin-4-yl]methyl}phenyl)-1-(pyridazin-3-yl)azetidine-3-carboxamide]
18 | 1.93 nM | CCC(C)C(=O)N1CCC(Cc2ccc(NC(=O)C3CN(c4cccnn4)C3)cc2)CC1 (stereo not drawn) [Example 957, N-(4-{[1-(2-methylbutanoyl)piperidin-4-yl]methyl}phenyl)-1-(pyridazin-3-yl)azetidine-3-carboxamide]

Row | IC50 | Compound
19 | 2.63 nM | CCC(=O)N1CCC(Cc2ccc(NC(=O)C3CN(c4cccnn4)C3)cc2)CC1 [Example 958, N-{4-[(1-propanoylpiperidin-4-yl)methyl]phenyl}-1-(pyridazin-3-yl)azetidine-3-carboxamide]
20 | 2.33 nM | CCCC(=O)N1CCC(Cc2ccc(NC(=O)C3CN(c4cccnn4)C3)cc2)CC1 [Example 959, N-{4-[(1-butanoylpiperidin-4-yl)methyl]phenyl}-1-(pyridazin-3-yl)azetidine-3-carboxamide]
21 | 2.86 nM | O=C(Nc1ccc(CC2CCN(C(=O)C3CCC3)CC2)cc1)C1CN(c2cccnn2)C1 [Example 960, N-(4-{[1-(cyclobutylcarbonyl)piperidin-4-yl]methyl}phenyl)-1-(pyridazin-3-yl)azetidine-3-carboxamide]
22 | 5.57 nM | CCCCC(=O)N1CCC(Cc2ccc(NC(=O)C3CN(c4cccnn4)C3)cc2)CC1 [Example 961, N-{4-[(1-pentanoylpiperidin-4-yl)methyl]phenyl}-1-(pyridazin-3-yl)azetidine-3-carboxamide]
23 | 2.4 nM | O=C(Nc1ccc(CC2CCN(C(=O)CC3CCCC3)CC2)cc1)C1CN(c2cccnn2)C1 [Example 962, N-(4-{[1-(cyclopentylacetyl)piperidin-4-yl]methyl}phenyl)-1-(pyridazin-3-yl)azetidine-3-carboxamide]
24 | 2.14 nM | Cc1ccccc1C(=O)N1CCC(Cc2ccc(NC(=O)C3CN(c4cccnn4)C3)cc2)CC1 [Example 963, N-(4-{[1-(2-methylbenzoyl)piperidin-4-yl]methyl}phenyl)-1-(pyridazin-3-yl)azetidine-3-carboxamide]
25 | 1.84 nM | CCC(C)CC(=O)N1CCC(Cc2ccc(NC(=O)C3CN(c4cccnn4)C3)cc2)CC1 (stereo not drawn) [Example 964, N-(4-{[1-(3-methylpentanoyl)piperidin-4-yl]methyl}phenyl)-1-(pyridazin-3-yl)azetidine-3-carboxamide]
26 | 2.6 nM | O=C(Nc1ccc(CC2CCN(C(=O)C3CCCCC3)CC2)cc1)C1CN(c2cccnn2)C1 [Example 965, N-(4-{[1-(cyclohexylcarbonyl)piperidin-4-yl]methyl}phenyl)-1-(pyridazin-3-yl)azetidine-3-carboxamide]
27 | 3.23 nM | CC(C)CC(=O)N1CCC(Cc2ccc(NC(=O)C3CN(c4cccnn4)C3)cc2)CC1 [Example 966, N-(4-{[1-(3-methylbutanoyl)piperidin-4-yl]methyl}phenyl)-1-(pyridazin-3-yl)azetidine-3-carboxamide]
28 | 3.05 nM | O=C(Nc1ccc(CC2CCN(C(=O)C3CC3)CC2)cc1)C1CN(c2cccnn2)C1 [Example 967, N-(4-{[1-(cyclopropylcarbonyl)piperidin-4-yl]methyl}phenyl)-1-(pyridazin-3-yl)azetidine-3-carboxamide]
29 | 3.7 nM | O=C(Nc1ccc(CC2CCN(C(=O)CC(F)(F)F)CC2)cc1)C1CN(c2cccnn2)C1 [Example 968, 1-(pyridazin-3-yl)-N-(4-{[1-(3,3,3-trifluoropropanoyl)piperidin-4-yl]methyl}phenyl)azetidine-3-carboxamide]
30 | 0.347 nM | Cc1ccnnc1N1CC(C(=O)Nc2ccc(C3CCN(C(=O)CC(C)(C)C)CC3)cc2)C1 [Example 969, N-{4-[1-(3,3-dimethylbutanoyl)piperidin-4-yl]phenyl}-1-(4-methylpyridazin-3-yl)azetidine-3-carboxamide]
31 | 28.5 nM | CC(C)(C)CC(=O)N1CCC(n2cc(NC(=O)C3CN(c4cccnn4)C3)cn2)CC1 [Example 970, N-{1-[1-(3,3-dimethylbutanoyl)piperidin-4-yl]-1H-pyrazol-4-yl}-1-(pyridazin-3-yl)azetidine-3-carboxamide]
32 | 70.8 nM | O=C(Nc1cnn(C2CCN(C(=O)c3ccccc3F)CC2)c1)C1CN(c2cccnn2)C1 [Example 971, N-{1-[1-(2-fluorobenzoyl)piperidin-4-yl]-1H-pyrazol-4-yl}-1-(pyridazin-3-yl)azetidine-3-carboxamide]
33 | 667 nM | O=C(Nc1ccccc1)c1ccc(NC(=O)C2CN(c3cccnn3)C2)cc1 [Example 972, N-[4-(phenylcarbamoyl)phenyl]-1-(pyridazin-3-yl)azetidine-3-carboxamide]
34 | 5.53 nM | CC(C)(C)CNC(=O)c1ccc(NC(=O)C2CN(c3cccnn3)C2)cc1 [Example 973, N-{4-[(2,2-dimethylpropyl)carbamoyl]phenyl}-1-(pyridazin-3-yl)azetidine-3-carboxamide]
35 | 7.84 nM | COCC(C)(C)CNC(=O)c1ccc(NC(=O)C2CN(c3cccnn3)C2)cc1 [Example 974, N-{4-[(3-methoxy-2,2-dimethylpropyl)carbamoyl]phenyl}-1-(pyridazin-3-yl)azetidine-3-carboxamide]
36 | 98 nM | O=C(NCCC1CC1)c1ccc(NC(=O)C2CN(c3cccnn3)C2)cc1 [Example 975, N-{4-[(2-cyclopropylethyl)carbamoyl]phenyl}-1-(pyridazin-3-yl)azetidine-3-carboxamide]
